Experimental data from PubChem BioAssay AID330 (DTP/NCI, 2004).
Where “and” joins values, the source holds several entries; their conditions need not be identical. Equal entries are not always repeated. Toxic doses and inconclusive results are not listed.

Test system: P388 leukemia ip, CD2F1 mice, survival T/C
Test: NCI In Vivo Anticancer Drug Screen. Data for tumor model P388 Leukemia (intraperitoneal) in CD2F1 (CDF1) mice
Details: endpoint: median survival time, higher = longer survival
How it was run: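 Mice carrying the transplanted tumor received test compound or vehicle. Survival was recorded in each group, and the value is the treated-group measurement divided by that of the vehicle-treated control group.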

[1] = dose: 50.0 mg/kg/injection, schedule: Q01DX005 (ip), vehicle: Klucel (hydroxypropylcellulose) (HPC)
[2] = dose: 100.0 mg/kg/injection, schedule: Q01DX005 (ip), vehicle: Klucel (hydroxypropylcellulose) (HPC)
[3] = dose: 200.0 mg/kg/injection, schedule: Q01DX005 (ip), vehicle: Klucel (hydroxypropylcellulose) (HPC)
[4] = dose: 25.0 mg/kg/injection, schedule: Q01DX009 (ip), vehicle: saline with Tween-80
[5] = dose: 50.0 mg/kg/injection, schedule: Q01DX009 (ip), vehicle: saline with Tween-80
[6] = dose: 100.0 mg/kg/injection, schedule: Q01DX009 (ip), vehicle: saline with Tween-80
[7] = dose: 50.0 mg/kg/injection, schedule: Q01DX005 (ip), vehicle: saline with Tween-80
[8] = dose: 100.0 mg/kg/injection, schedule: Q01DX005 (ip), vehicle: saline with Tween-80

Cn1ccnc1C[Si](C)(C)C
T/C (dose: 45.5 mg/kg/injection, schedule: Q01DX005 (ip), vehicle: saline with Tween-80): 99 % of control | T/C (dose: 91.0 mg/kg/injection, schedule: Q01DX005 (ip), vehicle: saline with Tween-80): 107 % of control | T/C (dose: 182.0 mg/kg/injection, schedule: Q01DX005 (ip), vehicle: saline with Tween-80): 108 % of control

Clc1ccc(Nc2nnc(-c3ccc4c(c3)OCO4)o2)cc1
T/C [1]: 93 % of control | T/C [2]: 101 % of control | T/C [3]: 93 % of control

c1ccc2c(c1)[nH]c1nc3ncncc3nc12
T/C (dose: 50.0 mg/kg/injection, schedule: Q01DX009 (ip), vehicle: saline): 100 % of control | T/C (dose: 100.0 mg/kg/injection, schedule: Q01DX009 (ip), vehicle: saline): 100 % of control | T/C (dose: 200.0 mg/kg/injection, schedule: Q01DX009 (ip), vehicle: saline): 100 % of control

CC1(O)C(c2ccccc2)=C(c2ccccc2)C2(c3ccccc3)Oc3c(Cl)c(Cl)c(Cl)c(Cl)c3OC12c1ccccc1 (stereo not given)
T/C (dose: 12.5 mg/kg/injection, schedule: Q01DX009 (ip), vehicle: saline with Tween-80): 94 % of control | T/C [4]: 94 % of control | T/C [5]: 90 % of control and 93 % of control

O=C(NC1C=Nc2ccccc2NC1=O)c1ccc(Cl)cc1 (stereo not given)
T/C (dose: 60.0 mg/kg/injection, schedule: Q01DX005 (ip), vehicle: Klucel (hydroxypropylcellulose) (HPC)): 91 % of control | T/C (dose: 120.0 mg/kg/injection, schedule: Q01DX005 (ip), vehicle: Klucel (hydroxypropylcellulose) (HPC)): 98 % of control | T/C (dose: 240.0 mg/kg/injection, schedule: Q01DX005 (ip), vehicle: Klucel (hydroxypropylcellulose) (HPC)): 91 % of control

CN(C(=O)C1CC1)c1ccccc1
T/C [5]: 105 % of control | T/C [6]: 107 % of control

CCOP(=S)(N/N=C(\C)c1ccc(C)s1)OCC
T/C [1]: 104 % of control | T/C [2]: 113 % of control | T/C [3]: 114 % of control

COc1cc(OC)cc(C2OC(=O)c3c(OC)cc(C)cc32)c1 (stereo not given)
T/C (dose: 100.0 mg/kg/injection, schedule: Q04DX002 (ip), vehicle: saline with Tween-80): 93 % of control | T/C (dose: 200.0 mg/kg/injection, schedule: Q04DX002 (ip), vehicle: saline with Tween-80): 88 % of control | T/C (dose: 400.0 mg/kg/injection, schedule: Q04DX002 (ip), vehicle: saline with Tween-80): 90 % of control

COc1ccc(S(N)(=O)=O)cc1C(=O)NCCN1CCN(c2cccc(C(F)(F)F)c2)CC1
T/C [1]: 99 % of control | T/C [2]: 95 % of control

O=C(CNC(=O)NCc1ccco1)NNC(=O)Nc1ccc(F)c(Cl)c1
T/C (dose: 60.0 mg/kg/injection, schedule: Q01DX005 (ip), vehicle: saline with Tween-80): 101 % of control | T/C (dose: 120.0 mg/kg/injection, schedule: Q01DX005 (ip), vehicle: saline with Tween-80): 106 % of control | T/C (dose: 240.0 mg/kg/injection, schedule: Q01DX005 (ip), vehicle: saline with Tween-80): 110 % of control

Cc1ccc(C2SCC(=O)N2CCN2C(=O)CSC2c2ccc(C)s2)s1 (stereo not given)
T/C [7]: 101 % of control | T/C [8]: 109 % of control | T/C (dose: 200.0 mg/kg/injection, schedule: Q01DX005 (ip), vehicle: saline with Tween-80): 100 % of control

Nc1nc2c(c(=O)[nH]1)NC(CCNc1ccc(C(=O)NC(CCC(=O)O)C(=O)O)cc1)CN2 (stereo not given)
T/C [4]: 100 % of control | T/C [5]: 104 % of control and 118 % of control | T/C (dose: 100.0 mg/kg/injection, schedule: Q01DX009 (ip), vehicle: saline sonified): 113 % of control | T/C [6]: 122 % of control

Cc1ccc(S(=O)(=O)N/N=C2/CCCC(S(=O)(=O)c3ccc(C)cc3)C2)cc1 (stereo not given)
T/C (dose: 25.0 mg/kg/injection, schedule: Q01DX005 (ip), vehicle: saline with Tween-80): 111 % of control | T/C [7]: 98 % of control | T/C [8]: 93 % of control

CC(=O)C(CSC(=O)c1ccccc1)C(C)=O
T/C (dose: 100.0 mg/kg/injection, schedule: Q04DX002 (ip), vehicle: Klucel (hydroxypropylcellulose) (HPC)): 100 % of control | T/C (dose: 200.0 mg/kg/injection, schedule: Q04DX002 (ip), vehicle: Klucel (hydroxypropylcellulose) (HPC)): 100 % of control
